According to patent publication US11708359B2, “Monoacylglycerol lipase modulators” (Janssen Pharmaceutica NV, priority 2020, dated 2023):
pIC50: −log10 of the molar value. Read-outs that look alike come from different tables or passages of the source.

Biological target: human MGL from HeLa cells (Homo sapiens (Human), UniProt Q99685)
Assay: MGL in vitro activity assay ([glycerol-1,3-3H]-oleoyl glycerol cleavage, activated carbon filter)
Type: biochemical
Method: The assay consists of combining endogenously expressed MGL from HeLa cells with test compounds, adding[glycerol-1,3-^3H]-oleoyl glycerol, incubating for one hour, and then measuring the amount of cleaved[1,3-^3H]-glycerol that passes through an activated carbon filter. The amount of cleaved, tritiated glycerol passing through the carbon filter is proportional to the activity of the MGL enzyme in a particular well/test condition.
Standard conditions for this assay combine 300 nM [Glycerol-1,3-^3H]-oleoyl glycerol with human MGL from HeLa cells and test compounds for one hour, after which the reaction is filtered through activated carbon and tritium is measured in the flow through. […] MGL is the predominant hydrolase in HeLa cells/cell homogenates.

[1] = 300 nM [Glycerol-1,3-3H]-oleoyl glycerol, endogenously expressed MGL from HeLa cells, one hour incubation, read-out: MGL IC50

Chain of human MGL from HeLa cells (Q99685 whole entry): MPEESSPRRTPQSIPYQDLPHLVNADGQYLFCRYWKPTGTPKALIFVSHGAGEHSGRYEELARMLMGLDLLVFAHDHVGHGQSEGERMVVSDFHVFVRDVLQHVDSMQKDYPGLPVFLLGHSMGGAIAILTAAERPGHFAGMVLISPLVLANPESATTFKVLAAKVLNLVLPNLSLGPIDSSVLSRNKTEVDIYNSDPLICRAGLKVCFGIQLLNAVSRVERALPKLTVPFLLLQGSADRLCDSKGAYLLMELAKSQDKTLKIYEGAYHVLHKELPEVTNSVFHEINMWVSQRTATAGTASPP

| SMILES | pIC50 [1] | pIC50 |
| --- | --- | --- |
| Cc1ccc([C@H]2[C@@H]3CN(C(=O)[C@H]4C[C@]5(COC(=O)N5)C4)C[C@@H]32)cc1OC(F)(F)F [Example 115, (2s,4S)-2-((1R,5S,6S)-6-(4-Methyl-3-(trifluoromethoxy)phenyl)-3-azabicyclo[3.1.0]hexane-3-carbonyl)-7-oxa-5-azaspiro[3.4]octan-6-one] | 8.28 | – |
| CC1(c2ccc(C34CC3CN(C(=O)[C@H]3C[C@]5(CCC(=O)N5)C3)C4)cc2)CC1 (mixture of isomers) [Example 27, (rac)-(2r,4s)-2-(1-(4-(1-Methylcyclopropyl)phenyl)-3-azabicyclo[3.1.0]hexane-3-carbonyl)-5-azaspiro[3.4]octan-6-one] | 8.02 | – |
| CC(C)(C)c1cccc(C23CCN(C(=O)[C@H]4C[C@]5(COC(=O)N5)C4)CC2C3)c1 (mixture of isomers) [Example 60, (rac)-(2s,4s)-2-(6-(3-(tert-Butyl)phenyl)-3-azabicyclo[4.1.0]heptane-3-carbonyl)-7-oxa-5-azaspiro[3.4]octan-6-one] | 11.14 | – |
| Cc1ccccc1[C@H]1[C@@H]2CN(C(=O)[C@H]3C[C@]4(COC(=O)N4)C3)C[C@@]21C (racemic) [Example 97, (rac)-(2s,4*S)-2-((1*R,5*S,6*R)-1-Methyl-6-(o-tolyl)-3-azabicyclo[3.1.0]hexane-3-carbonyl)-7-oxa-5-azaspiro[3.4]octan-6-one] | 6.74 | – |
| CC(C)c1ccc([C@]23C[C@H]2CN(C(=O)[C@H]2C[C@]4(COC(=O)N4)C2)C3)cc1 (stereo in doubt) [Example 11, (2s,4*R)-2-((1*S,5*R)-1-(4-Isopropylphenyl)-3-azabicyclo[3.1.0]hexane-3-carbonyl)-7-oxa-5-azaspiro[3.4]octan-6-one] | 8.64 | – |
| O=C1CC[C@]2(C[C@H](C(=O)N3CCC4(c5cccc(OC(F)(F)F)c5)CC4C3)C2)N1 (mixture of isomers) [Example 52, (rac)-(2r,4s)-2-(6-(3-(Trifluoromethoxy)phenyl)-3-azabicyclo[4.1.0]heptane-3-carbonyl)-5-azaspiro[3.4]octan-6-one] | 8.32 | – |
| O=C1N[C@]2(CO1)C[C@H](C(=O)N1C[C@@H]3[C@H](C1)[C@H]3c1ccc(C(F)(F)F)cc1)C2 [Example 80, (2s,4S)-2-((1R,5S,6S)-6-(4-(Trifluoromethyl)phenyl)-3-azabicyclo[3.1.0]hexane-3-carbonyl)-7-oxa-5-azaspiro[3.4]octan-6-one] | 7.48 | – |
| O=C1N[C@]2(CO1)C[C@H](C(=O)N1CC3CC3(c3cccc(OC(F)(F)F)c3)C1)C2 (mixture of isomers) [Example 19, (rac)-(2s,4s)-2-(1-(3-(Trifluoromethoxy)phenyl)-3-azabicyclo[3.1.0]hexane-3-carbonyl)-7-oxa-5-azaspiro[3.4]octan-6-one] | 7.96 | – |
| Cc1ccc(C23CCN(C(=O)[C@H]4C[C@]5(CCC(=O)N5)C4)CC2C3)cc1OC(F)(F)F (mixture of isomers) [Example 76, (rac)-(2r,4s)-2-(6-(4-Methyl-3-(trifluoromethoxy)phenyl)-3-azabicyclo[4.1.0]heptane-3-carbonyl)-5-azaspiro[3.4]octan-6-one] | – | 8.59 |
| Cc1ccc([C@H]2[C@@H]3CN(C(=O)[C@H]4C[C@]5(COC(=O)N5)C4)C[C@@H]32)cc1C [Example 88, (2s,4S)-2-((1R,5S,6S)-6-(3,4-Dimethylphenyl)-3-azabicyclo[3.1.0]hexane-3-carbonyl)-7-oxa-5-azaspiro[3.4]octan-6-one] | 7.54 | – |
| O=C1N[C@]2(CO1)C[C@H](C(=O)N1CC3CC3(c3ccccc3)C1)C2 (mixture of isomers) [Example 4, (rac)-(2s,4s)-2-(1-Phenyl-3-azabicyclo[3.1.0]hexane-3-carbonyl)-7-oxa-5-azaspiro[3.4]octan-6-one] | 7.31 | – |
| O=C1N[C@]2(CO1)C[C@H](C(=O)N1CC[C@@]3(c4ccccc4)C[C@H]3C1)C2 [Example 40, (2s,4S)-2-((1R,6S)-6-Phenyl-3-azabicyclo[4.1.0]heptane-3-carbonyl)-7-oxa-5-azaspiro[3.4]octan-6-one] | 6.87 | – |
| Cc1cccc([C@]23CCN(C(=O)[C@H]4C[C@]5(COC(=O)N5)C4)C[C@H]2C3)c1 (stereo in doubt) [Example 44, (2s,4*R)-2-((1*S,6*R)-6-(m-Tolyl)-3-azabicyclo[4.1.0]heptane-3-carbonyl)-7-oxa-5-azaspiro[3.4]octan-6-one] | 8.55 | – |
| CC(C)(C)c1cccc([C@H]2[C@@H]3CN(C(=O)[C@H]4C[C@]5(CCC(=O)N5)C4)C[C@@H]32)c1 [Example 79, (2r,4S)-2-((1R,5S,6S)-6-(3-(tert-Butyl)phenyl)-3-azabicyclo[3.1.0]hexane-3-carbonyl)-5-azaspiro[3.4]octan-6-one] | 8.14 | – |
| CC(C)c1ccc(C23CC2CN(C(=O)[C@H]2C[C@]4(CCC(=O)N4)C2)C3)cc1 (mixture of isomers) [Example 12, (rac)-(2r,4s)-2-(1-(4-Isopropylphenyl)-3-azabicyclo[3.1.0]hexane-3-carbonyl)-5-azaspiro[3.4]octan-6-one] | 7.85 | – |
| CC(C)c1cccc([C@@]23C[C@@H]2CN(C(=O)[C@H]2C[C@]4(COC(=O)N4)C2)C3)c1 (stereo in doubt) [Example 7, (2s,4*5)-2-((1*R,5*5)-1-(3-Isopropylphenyl)-3-azabicyclo[3.1.0]hexane-3-carbonyl)-7-oxa-5-azaspiro[3.4]octan-6-one] | 8.30 | – |
| Cc1ccc([C@H]2[C@@H]3CN(C(=O)[C@H]4C[C@]5(COC(=O)N5)C4)C[C@@H]32)cc1Cl [Example 110, (2s,4S)-2-((1R,5S,6S)-6-(3-Chloro-4-methylphenyl)-3-azabicyclo[3.1.0]hexane-3-carbonyl)-7-oxa-5-azaspiro[3.4]octan-6-one] | 7.77 | – |
| CC(C)Cc1cccc([C@H]2[C@@H]3CN(C(=O)[C@H]4C[C@]5(COC(=O)N5)C4)C[C@@H]32)c1 [Example 101, (2s,4S)-2-((1R,5S,6S)-6-(3-Isobutylphenyl)-3-azabicyclo[3.1.0]hexane-3-carbonyl)-7-oxa-5-azaspiro[3.4]octan-6-one] | 8.82 | – |
| CC1(c2ccc([C@]34C[C@H]3CN(C(=O)[C@H]3C[C@]5(CCC(=O)N5)C3)C4)cc2)CC1 (stereo in doubt) [Example 96, (2r,4*R)-2-((1*S,5*R)-1-(4-(1-Methylcyclopropyl)phenyl)-3-azabicyclo[3.1.0]hexane-3-carbonyl)-5-azaspiro[3.4]octan-6-one] | 8.07 | – |
| CC(C)(C)c1cccc([C@@H]2[C@H]3CN(C(=O)[C@H]4C[C@]5(COC(=O)N5)C4)C[C@]32C)c1 (stereo in doubt) [Example 100, (2s,4*R)-2-((1*S,5*R,6*5)-6-(3-(tert-Butyl)phenyl)-1-methyl-3-azabicyclo[3.1.0]hexane-3-carbonyl)-7-oxa-5-azaspiro[3.4]octan-6-one] | 8.08 | – |
| CC(C)c1ccc([C@H]2[C@@H]3CN(C(=O)[C@H]4C[C@]5(CCC(=O)N5)C4)C[C@@H]32)cc1 [Example 91, (2r,4S)-2-((1R,5S,6S)-6-(4-Isopropylphenyl)-3-azabicyclo[3.1.0]hexane-3-carbonyl)-5-azaspiro[3.4]octan-6-one] | 7.70 | – |
| CC(C)(C)c1cccc(C23CCN(C(=O)[C@H]4C[C@]5(CCC(=O)N5)C4)CC2C3)c1 (mixture of isomers) [Example 61, (rac)-(2r,4s)-2-(6-(3-(tert-Butyl)phenyl)-3-azabicyclo[4.1.0]heptane-3-carbonyl)-5-azaspiro[3.4]octan-6-one] | 9.60 | – |
| C[C@]12CN(C(=O)[C@H]3C[C@]4(COC(=O)N4)C3)C[C@H]1[C@@H]2c1cccc(C(F)(F)F)c1 (racemic) [Example 106, (rac)-(2s,4*5)-2-((1*R,5*S,6*R)-1-Methyl-6-(3-(trifluoromethyl)phenyl)-3-azabicyclo[3.1.0]hexane-3-carbonyl)-7-oxa-5-azaspiro[3.4]octan-6-one] | 7.55 | – |
| CC(C)c1ccc(C23CC2CN(C(=O)[C@H]2C[C@]4(COC(=O)N4)C2)C3)cc1 (mixture of isomers) [Example 9, (rac)-(2s,4s)-2-(1-(4-Isopropylphenyl)-3-azabicyclo[3.1.0]hexane-3-carbonyl)-7-oxa-5-azaspiro[3.4]octan-6-one] | 8.66 | – |
| CC1(c2ccc(C34CCN(C(=O)[C@H]5C[C@]6(CCC(=O)N6)C5)CC3C4)cc2)CC1 (mixture of isomers) [Example 70, (rac)-(2r,4s)-2-(6-(4-(1-Methylcyclopropyl)phenyl)-3-azabicyclo[4.1.0]heptane-3-carbonyl)-5-azaspiro[3.4]octan-6-one] | 9.28 | – |
| Cc1cc(C(F)(F)F)ccc1C12CC1CN(C(=O)[C@H]1C[C@]3(COC(=O)N3)C1)C2 (mixture of isomers) [Example 33, (rac)-(2s,4s)-2-(1-(2-Methyl-4-(trifluoromethyl)phenyl)-3-azabicyclo[3.1.0]hexane-3-carbonyl)-7-oxa-5-azaspiro[3.4]octan-6-one] | 8.60 | – |
| CC(C)(C)c1cccc([C@H]2[C@@H]3CN(C(=O)[C@H]4C[C@]5(COC(=O)N5)C4)C[C@@]32C)c1 (stereo in doubt) [Example 93, (rac)-(2s,4*5)-2-((1*R,5*S,6*R)-6-(3-(tert-Butyl)phenyl)-1-methyl-3-azabicyclo[3.1.0]hexane-3-carbonyl)-7-oxa-5-azaspiro[3.4]octan-6-one] | 9.12 | – |
| Cc1ccc(C23CC2CN(C(=O)[C@H]2C[C@]4(COC(=O)N4)C2)C3)cc1F (mixture of isomers) [Example 37, (rac)-(2s,4s)-2-(1-(3-Fluoro-4-methylphenyl)-3-azabicyclo[3.1.0]hexane-3-carbonyl)-7-oxa-5-azaspiro[3.4]octan-6-one] | 8.00 | – |
| CC(C)(C)c1ccc(C23CCN(C(=O)[C@H]4C[C@]5(CCC(=O)N5)C4)CC2C3)cc1 (mixture of isomers) [Example 63, (rac)-(2r,4s)-2-(6-(4-(tert-Butyl)phenyl)-3-azabicyclo[4.1.0]heptane-3-carbonyl)-5-azaspiro[3.4]octan-6-one] | 9.39 | – |
